From patent publication US20250041176A1, “An antimicrobial composition” (Conopco, Inc., d/b/a UNILEVER, priority 2021, published 2025)

Test system: C. acnes (ATCC 6919)
Test: Growth of C. acnes, MIC plate method
Type: cell-based, Cutibacterium acnes
Settings: actives at the stated % in 20 ml agar; 10 μl inoculum spotted; 37° C. 4-5 days anaerobically
Experimental: The actives whether used singly or in combination as shown in Table-1 were tested for growth of C. acnes using the invitro protocol as given below:
Protocol used for Measuring Growth (MIC Plate Method)
Working Cultures of Test Organisms
For C. acnes (ATCC 6919): Approximately 4-5 days prior to testing, a sterile plate of […] (RCM Agar) was inoculated with the challenge bacterial test organism and incubated at 37° C.±1° C. for 4-5 days anaerobically.
Test Organism Suspensions (To Be Prepared Just Before Use)
A suspension of the challenge microorganism was prepared in sterile 0.85% saline and a cell density were adjusted at 620 nm to achieve a challenge suspension concentration of approximately 1.0×10^8 colony forming units per ml for bacteria
Preparation of Sample Concentrations
• a) Aliquot of samples were taken to achieve required test concentration in 20 ml of agar system. • b) Test samples were initially dissolved in 1 ml of sample diluent (sterile d/water or solvent) to get test solutions • c) The test solutions were added to 20 ml sterile molten agar maintained at a temperature of 45-50° C., mixed thoroughly and poured into petri plates. The agar was allowed to solidify at room temperature. • d) On solidification, 10μl inoculum of prepared test culture was spotted onto respective agar surfaces in duplicates • e) The inoculated plates were allowed to stand at room temperature until the inoculum spots had been absorbed into the agar. The plates were incubated at 37° C. ±1° C. for 4-5 days anaerobically. After completion of incubation, plates were checked for growth and no growth to determine the MIC value.

Row | SMILES | Observation (growth of C. acnes)
1 | CCCCCCc1ccc(O)cc1O [Example A, 4 hexyl resorcinol] | Growth
2 | Oc1ccc(C2CCCC2)cc1 [E, 4 cyclo pentyl phenol] | Growth
3 | CCC(C)c1ccc(O)cc1 (stereo not drawn) [C, 4 sec butyl phenol] | Growth
